In patent US9549932B2, “2-(morpholin-4-yl)-1,7-naphthyridines” (BAYER PHARMA AKTIENGESELLSCHAFT, priority 2014, dated 2017):

Biological target: full-length human ATR protein (Homo sapiens (Human), UniProt Q13535)
Assay: Binding assay ATR (TR-FRET tracer displacement)
Settings: tracer A, TR-FRET; read-out: ATR binding (tracer A) IC50
Method in brief: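 Full-length human GST-ATR co-purified with ATRIP, pre-complexed 30 min at 22 °C with anti-GST-Tb antibody, then pre-bound with compound 10 min. Tracer A or B added (2 µl of 100 nM solution), 30 min at 22 °C.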

Chain of full-length human ATR protein (Q13535 other isoform, or with tags, fused parts or gaps): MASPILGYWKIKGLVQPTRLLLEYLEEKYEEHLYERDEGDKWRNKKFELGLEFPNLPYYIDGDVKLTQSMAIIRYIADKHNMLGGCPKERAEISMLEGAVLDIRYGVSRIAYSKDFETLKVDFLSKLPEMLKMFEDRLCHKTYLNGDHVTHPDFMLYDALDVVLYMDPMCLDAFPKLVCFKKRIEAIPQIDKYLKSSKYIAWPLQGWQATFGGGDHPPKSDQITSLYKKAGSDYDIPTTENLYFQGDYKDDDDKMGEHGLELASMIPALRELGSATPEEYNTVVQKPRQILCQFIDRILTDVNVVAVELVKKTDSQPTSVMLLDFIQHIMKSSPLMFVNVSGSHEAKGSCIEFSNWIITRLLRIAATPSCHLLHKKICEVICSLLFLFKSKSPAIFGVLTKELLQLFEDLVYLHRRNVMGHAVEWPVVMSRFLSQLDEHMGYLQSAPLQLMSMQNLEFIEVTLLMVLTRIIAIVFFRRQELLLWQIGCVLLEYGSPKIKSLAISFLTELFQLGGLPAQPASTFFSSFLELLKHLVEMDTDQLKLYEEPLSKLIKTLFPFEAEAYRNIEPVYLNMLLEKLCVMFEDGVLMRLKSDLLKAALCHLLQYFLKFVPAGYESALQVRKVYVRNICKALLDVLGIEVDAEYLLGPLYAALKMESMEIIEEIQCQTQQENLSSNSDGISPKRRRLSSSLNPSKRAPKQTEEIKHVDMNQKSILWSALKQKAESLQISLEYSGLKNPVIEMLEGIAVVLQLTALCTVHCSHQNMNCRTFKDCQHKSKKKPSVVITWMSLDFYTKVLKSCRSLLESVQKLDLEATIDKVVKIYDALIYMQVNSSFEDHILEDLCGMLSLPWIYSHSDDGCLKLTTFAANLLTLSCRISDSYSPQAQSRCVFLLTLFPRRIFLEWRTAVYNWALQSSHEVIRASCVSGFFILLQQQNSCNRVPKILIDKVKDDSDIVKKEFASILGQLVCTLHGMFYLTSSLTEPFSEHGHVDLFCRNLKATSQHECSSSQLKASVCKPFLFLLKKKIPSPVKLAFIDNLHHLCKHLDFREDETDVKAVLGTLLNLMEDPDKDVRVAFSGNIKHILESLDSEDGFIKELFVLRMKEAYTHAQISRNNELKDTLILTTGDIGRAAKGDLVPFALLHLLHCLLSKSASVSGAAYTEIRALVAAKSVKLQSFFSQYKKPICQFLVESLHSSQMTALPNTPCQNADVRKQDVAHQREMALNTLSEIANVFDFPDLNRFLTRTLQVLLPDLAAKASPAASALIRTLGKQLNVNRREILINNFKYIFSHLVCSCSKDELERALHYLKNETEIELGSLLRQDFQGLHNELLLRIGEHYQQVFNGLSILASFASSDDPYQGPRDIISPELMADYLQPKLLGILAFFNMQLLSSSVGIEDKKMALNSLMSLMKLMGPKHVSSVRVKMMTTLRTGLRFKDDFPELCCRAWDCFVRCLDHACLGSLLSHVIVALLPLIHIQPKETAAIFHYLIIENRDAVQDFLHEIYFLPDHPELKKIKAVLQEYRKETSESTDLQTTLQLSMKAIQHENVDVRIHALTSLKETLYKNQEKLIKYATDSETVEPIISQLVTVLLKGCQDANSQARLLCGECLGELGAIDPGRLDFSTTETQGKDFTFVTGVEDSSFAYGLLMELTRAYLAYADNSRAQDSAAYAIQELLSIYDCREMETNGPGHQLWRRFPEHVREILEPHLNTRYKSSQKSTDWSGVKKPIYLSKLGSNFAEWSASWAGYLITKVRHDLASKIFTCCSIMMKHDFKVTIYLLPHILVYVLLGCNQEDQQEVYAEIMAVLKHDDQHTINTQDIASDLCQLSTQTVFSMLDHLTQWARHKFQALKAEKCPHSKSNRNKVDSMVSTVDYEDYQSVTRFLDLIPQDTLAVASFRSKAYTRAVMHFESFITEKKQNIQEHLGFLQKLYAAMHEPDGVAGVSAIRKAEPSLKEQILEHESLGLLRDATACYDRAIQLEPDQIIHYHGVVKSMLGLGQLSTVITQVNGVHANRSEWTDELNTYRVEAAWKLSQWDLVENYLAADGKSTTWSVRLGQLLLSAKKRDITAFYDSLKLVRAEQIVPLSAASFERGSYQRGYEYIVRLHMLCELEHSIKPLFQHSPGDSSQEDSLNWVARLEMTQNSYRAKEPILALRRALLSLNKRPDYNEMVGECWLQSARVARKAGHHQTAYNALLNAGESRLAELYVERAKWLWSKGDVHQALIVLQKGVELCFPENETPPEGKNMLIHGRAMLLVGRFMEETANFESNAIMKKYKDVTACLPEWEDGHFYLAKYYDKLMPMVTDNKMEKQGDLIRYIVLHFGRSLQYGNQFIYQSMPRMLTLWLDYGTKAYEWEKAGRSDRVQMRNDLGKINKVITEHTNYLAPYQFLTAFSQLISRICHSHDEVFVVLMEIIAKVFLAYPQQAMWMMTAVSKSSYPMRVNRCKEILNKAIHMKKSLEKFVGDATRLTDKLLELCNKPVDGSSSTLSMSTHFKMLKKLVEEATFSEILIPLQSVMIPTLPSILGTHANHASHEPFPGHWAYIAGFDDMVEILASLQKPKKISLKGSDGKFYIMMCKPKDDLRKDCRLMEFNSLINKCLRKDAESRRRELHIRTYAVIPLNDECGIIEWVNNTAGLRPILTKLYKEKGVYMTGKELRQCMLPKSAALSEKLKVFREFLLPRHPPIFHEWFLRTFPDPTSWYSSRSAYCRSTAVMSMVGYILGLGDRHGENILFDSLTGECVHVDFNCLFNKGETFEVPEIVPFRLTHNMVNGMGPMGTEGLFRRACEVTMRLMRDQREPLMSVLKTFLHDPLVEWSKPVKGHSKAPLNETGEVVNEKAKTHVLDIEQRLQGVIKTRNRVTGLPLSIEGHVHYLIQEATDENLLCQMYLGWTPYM
Chain of full-length human ATR protein (Q8WXE1 other isoform, or with tags, fused parts or gaps partner): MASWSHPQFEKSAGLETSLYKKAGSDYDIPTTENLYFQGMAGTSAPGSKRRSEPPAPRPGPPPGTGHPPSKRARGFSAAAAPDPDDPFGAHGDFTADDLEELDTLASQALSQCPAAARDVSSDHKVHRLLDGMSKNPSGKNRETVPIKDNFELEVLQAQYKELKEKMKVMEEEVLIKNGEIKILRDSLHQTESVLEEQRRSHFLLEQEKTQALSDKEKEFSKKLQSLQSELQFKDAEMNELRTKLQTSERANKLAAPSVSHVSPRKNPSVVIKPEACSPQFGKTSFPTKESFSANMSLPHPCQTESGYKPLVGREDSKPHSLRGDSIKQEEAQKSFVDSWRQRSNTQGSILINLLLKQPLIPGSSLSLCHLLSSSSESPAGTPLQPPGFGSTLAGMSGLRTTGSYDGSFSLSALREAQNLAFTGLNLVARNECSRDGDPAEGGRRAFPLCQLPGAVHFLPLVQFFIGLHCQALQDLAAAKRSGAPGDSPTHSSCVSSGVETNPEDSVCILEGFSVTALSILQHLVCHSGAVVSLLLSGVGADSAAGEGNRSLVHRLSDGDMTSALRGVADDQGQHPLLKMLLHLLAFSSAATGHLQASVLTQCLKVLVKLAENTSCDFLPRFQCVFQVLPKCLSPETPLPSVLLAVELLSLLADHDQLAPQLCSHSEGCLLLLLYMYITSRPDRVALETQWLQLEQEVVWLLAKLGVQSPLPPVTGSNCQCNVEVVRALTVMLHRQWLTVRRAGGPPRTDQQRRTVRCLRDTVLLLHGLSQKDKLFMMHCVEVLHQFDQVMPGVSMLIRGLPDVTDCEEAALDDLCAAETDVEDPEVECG

How did the IC50 turn out when `C[C@@H]1COCCN1c1cc(-c2cc(C(F)(F)F)nn2C)c2ccnc(-c3ccn[nH]3)c2n1` [Example 98, 2-[(3R)-3-methylmorpholin-4-yl]-4-[1-methyl-3-(trifluoromethyl)-1H-pyrazol-5-yl]-8-(1H-pyrazol-5-yl)-1,7-naphthyridine] was run?
The IC50 was 13.1 nM.

How did the IC50 turn out when `Cc1ccsc1-c1cc(N2CCOC[C@H]2C)nc2c(-c3ccn[nH]3)nccc12` [Example 99, 2-[(3R)-3-methylmorpholin-4-yl]-4-(3-methyl-2-thienyl)-8-(1H-pyrazol-5-yl)-1,7-naphthyridine] was run?
The IC50 was 6.38 nM.

How did the IC50 turn out when `Cc1ccc(-c2cc(N3CCOC[C@H]3C)nc3c(-c4ccn[nH]4)nccc23)s1` [Example 100, 2-[(3R)-3-methylmorpholin-4-yl]-4-(5-methyl-2-thienyl)-8-(1H-pyrazol-5-yl)-1,7-naphthyridine] was run?
The IC50 was 16.5 nM.

For `Cc1cscc1-c1cc(N2CCOC[C@H]2C)nc2c(-c3ccn[nH]3)nccc12` [Example 101, 2-[(3R)-3-methylmorpholin-4-yl]-4-(4-methyl-3-thienyl)-8-(1H-pyrazol-5-yl)-1,7-naphthyridine], which IC50 is on record?
Its IC50 is 11.3 nM.

Which IC50 does the source give for `C[C@@H]1COCCN1c1cc(-c2sccc2Cl)c2ccnc(-c3ccn[nH]3)c2n1` [Example 102, 4-(3-chloro-2-thienyl)-2-[(3R)-3-methylmorpholin-4-yl]-8-(1H-pyrazol-5-yl)-1,7-naphthyridine] here?
The IC50 was 12.3 nM.

For `Cc1sccc1-c1cc(N2CCOC[C@H]2C)nc2c(-c3ccn[nH]3)nccc12` [Example 103, 2-[(3R)-3-methylmorpholin-4-yl]-4-(2-methyl-3-thienyl)-8-(1H-pyrazol-5-yl)-1,7-naphthyridine], which IC50 is on record?
Its IC50 is 10.1 nM.

`C[C@@H]1COCCN1c1cc(-c2ccnc3[nH]ccc23)c2ccnc(-c3ccn[nH]3)c2n1` [Example 104, 2-[(3R)-3-methylmorpholin-4-yl]-8-(1H-pyrazol-5-yl)-4-(1H-pyrrolo[2,3-b]pyridin-4-yl)-1,7-naphthyridine] was tested. Which IC50 did it give?
The IC50 was 14.1 nM.

Which IC50 does the source give for `Cc1noc(C)c1-c1cc(N2CCOC[C@H]2C)nc2c(-c3ccn[nH]3)nccc12` [Example 105, 4-(3,5-dimethyl-1,2-oxazol-4-yl)-2-[(3R)-3-methylmorpholin-4-yl]-8-(1H-pyrazol-5-yl)-1,7-naphthyridine] here?
Its IC50 is 8.67 nM.

How did the IC50 turn out when `COc1nccc(-c2cc(N3CCOC[C@H]3C)nc3c(-c4ccn[nH]4)nccc23)c1Cl` [Example 106, 4-(3-chloro-2-methoxypyridin-4-yl)-2-[(3R)-3-methylmorpholin-4-yl]-8-(1H-pyrazol-5-yl)-1,7-napthyridine] was run?
The IC50 was 13.1 nM.

How did the IC50 turn out when `C[C@@H]1COCCN1c1cc(C2=CCSCC2)c2ccnc(-c3ccn[nH]3)c2n1` [Example 108, 4-(3,6-dihydro-2H-thiopyran-4-yl)-2-[(3R)-3-methylmorpholin-4-yl]-8-(1H-pyrazol-5-yl)-1,7-naphthyridine] was run?
Its IC50 is 11.5 nM.

`CC1CCN(c2cc(N3CCOC[C@H]3C)nc3c(-c4ccn[nH]4)nccc23)CC1` [Example 109, 2-[(3R)-3-methylmorpholin-4-yl]-4-(4-methylpiperidin-1-yl)-8-(1H-pyrazol-5-yl)-1,7-naphthyridine] was tested. Which IC50 did it give?
The IC50 was 9.14 nM.

`C[C@@H]1COCCN1c1cc(-c2ccnn2C(C)(C)C)c2ccnc(-c3ccn[nH]3)c2n1` [Example 110, 4-(1-tert-butyl-1H-pyrazol-5-yl)-2-[(3R)-3-methylmorpholin-4-yl]-8-(1H-pyrazol-5-yl)-1,7-naphthyridine] was tested. Which IC50 did it give?
The IC50 was 13.5 nM.

How did the IC50 turn out when `Cc1cc(-c2cc(N3CCOC[C@H]3C)nc3c(-c4ccn[nH]4)nccc23)on1` [Example 112, 2-[(3R)-3-methylmorpholin-4-yl]-4-(3-methyl-1,2-oxazol-5-yl)-8-(1H-pyrazol-5-yl)-1,7-naphthyridine] was run?
The IC50 was 4.74 nM.

Which IC50 does the source give for `CCn1nc(C)cc1-c1cc(N2CCOC[C@H]2C)nc2c(-c3ccn[nH]3)nccc12` [Example 113, 4-(1-ethyl-3-methyl-1H-pyrazol-5-yl)-2-[(3R)-3-methylmorpholin-4-yl]-8-(1H-pyrazol-5-yl)-1,7-naphthyridine] here?
Its IC50 is 5.71 nM.

With `Cc1cnn(C)c1-c1cc(N2CCOC[C@H]2C)nc2c(-c3ccn[nH]3)nccc12` [Example 114, 4-(1,4-dimethyl-1H-pyrazol-5-yl)-2-[(3R)-3-methylmorpholin-4-yl]-8-(1H-pyrazol-5-yl)-1,7-naphthyridine] as the compound, how does the IC50 read?
The IC50 was 7.35 nM.

Which IC50 does the source give for `CSc1ccc(-c2cc(N3CCOC[C@H]3C)nc3c(-c4ccn[nH]4)nccc23)c(C)n1` [Example 115, 4-[2-methyl-6-(methylsulfanyl)pyridin-3-yl]-2-[(3R)-3-methylmorpholin-4-yl]-8-(1H-pyrazol-5-yl)-1,7-naphthyridine] here?
The IC50 was 7.44 nM.

How did the IC50 turn out when `Cc1nc(S(C)(=N)=O)ccc1-c1cc(N2CCOC[C@H]2C)nc2c(-c3ccn[nH]3)nccc12` (stereo partly drawn) [Example 116, 4-[2-methyl-6-(S-methylsulfonimidoyl)pyridin-3-yl]-2-[(3R)-3-methylmorpholin-4-yl]-8-(1H-pyrazol-5-yl)-1,7-naphthyridine] was run?
Its IC50 is 9.51 nM.

Which IC50 does the source give for `CCCn1nccc1-c1cc(N2CCOC[C@H]2C)nc2c(-c3ccn[nH]3)nccc12` [Example 117, 2-[(3R)-3-methylmorpholin-4-yl]-4-(1-propyl-1H-pyrazol-5-yl)-8-(1H-pyrazol-5-yl)-1,7-naphthyridine] here?
Its IC50 is 8.16 nM.

Which IC50 does the source give for `C[C@@H]1COCCN1c1cc(-c2cnc3n2CCC3)c2ccnc(-c3ccn[nH]3)c2n1` [Example 118, 4-(6,7-dihydro-5H-pyrrolo[1,2-a]imidazol-3-yl)-2-[(3R)-3-methylmorpholin-4-yl]-8-(1H-pyrazol-5-yl)-1,7-naphthyridine] here?
The IC50 was 10.1 nM.

How did the IC50 turn out when `CCn1nc(C(F)(F)F)cc1-c1cc(N2CCOC[C@H]2C)nc2c(-c3ccn[nH]3)nccc12` [Example 119, 4-[1-ethyl-3-(trifluoromethyl)-1H-pyrazol-5-yl]-2-[(3R)-3-methylmorpholin-4-yl]-8-(1H-pyrazol-5-yl)-1,7-naphthyridine] was run?
The IC50 was 11.7 nM.

How did the IC50 turn out when `COC(=O)c1ccc(-c2cc(N3CCOC[C@H]3C)nc3c(-c4ccn[nH]4)nccc23)[nH]1` [Example 120, Methyl 5-{2-[(3R)-3-methylmorpholin-4-yl]-8-(1H-pyrazol-5-yl)-1,7-naphthyridin-4-yl}-1H-pyrrole-2-carboxylate] was run?
Its IC50 is 13.1 nM.

How did the IC50 turn out when `C[C@@H]1COCCN1c1cc(-c2ccns2)c2ccnc(-c3ccn[nH]3)c2n1` [Example 121, 2-[(3R)-3-methylmorpholin-4-yl]-8-(1H-pyrazol-5-yl)-4-(1,2-thiazol-5-yl)-1,7-naphthyridine] was run?
Its IC50 is 17.4 nM.

For `C[C@@H]1COCCN1c1cc(-c2ccccc2N(C)C)c2ccnc(-c3ccn[nH]3)c2n1` [Example 122, N,N-dimethyl-2-{2-[(3R)-3-methylmorpholin-4-yl]-8-(1H-pyrazol-5-yl)-1,7-naphthyridin-4-yl}aniline], which IC50 is on record?
The IC50 was 19.4 nM.

Which IC50 does the source give for `C[C@@H]1COCCN1c1cc(-c2ccc(F)cc2F)c2ccnc(-c3ccn[nH]3)c2n1` [Example 123, 4-(2,4-difluorophenyl)-2-[(3R)-3-methylmorpholin-4-yl]-8-(1H-pyrazol-5-yl)-1,7-naphthyridine] here?
The IC50 was 21.3 nM.

`CC(C)n1nccc1-c1cc(N2CCOC[C@H]2C)nc2c(-c3ccn[nH]3)nccc12` [Example 124, 4-(1-isopropyl-1H-pyrazol-5-yl)-2-[(3R)-3-methylmorpholin-4-yl]-8-(1H-pyrazol-5-yl)-1,7-naphthyridine] was tested. Which IC50 did it give?
Its IC50 is 13.6 nM.

For `CCS(=O)(CC)=Nc1cc(N2CCOC[C@H]2C)nc2c(-c3ccn[nH]3)nccc12` [Example 126, 4-{[diethyl(oxido)-λ^6-sulfanylidene]amino}-2-[(3R)-3-methylmorpholin-4-yl]-8-(1H-pyrazol-5-yl)-1,7-naphthyridine], which IC50 is on record?
Its IC50 is 21.5 nM.

`CC(C)COP(C)(=O)c1cc(N2CCOC[C@H]2C)nc2c(-c3ccn[nH]3)nccc12` (stereo partly drawn) [Example 127, Isobutyl methyl{2-[(3R)-3-methylmorpholin-4-yl]-8-(1H-pyrazol-5-yl)-1,7-naphthyridin-4-yl}phosphinate] was tested. Which IC50 did it give?
The IC50 was 25.5 nM.

For `C[C@@H]1COCCN1c1cc(C(C)(C)O)c2ccnc(-c3ccn[nH]3)c2n1` [Example 128, 2-{2-[(3R)-3-methylmorpholin-4-yl]-8-(1H-pyrazol-5-yl)-1,7-naphthyridin-4-yl}propan-2-ol], which IC50 is on record?
Its IC50 is 32.6 nM.

`CCC(O)(CC)c1cc(N2CCOC[C@H]2C)nc2c(-c3ccn[nH]3)nccc12` [Example 129, 3-{2-[(3R)-3-methylmorpholin-4-yl]-8-(1H-pyrazol-5-yl)-1,7-naphthyridin-4-yl}pentan-3-ol] was tested. Which IC50 did it give?
The IC50 was 35.3 nM.

With `C[C@@H]1COCCN1c1cc(-c2cncc(Cl)c2)c2ccnc(-c3ccn[nH]3)c2n1` [Example 130, 4-(5-chloropyridin-3-yl)-2-[(3R)-3-methylmorpholin-4-yl]-8-(1H-pyrazol-5-yl)-1,7-naphthyridine] as the compound, how does the IC50 read?
The IC50 was 21.6 nM.

For `C[C@@H]1COCCN1c1cc(-c2ccc(F)cc2N)c2ccnc(-c3ccn[nH]3)c2n1` [Example 131, 5-fluoro-2-{2-[(3R)-3-methylmorpholin-4-yl]-8-(1H-pyrazol-5-yl)-1,7-naphthyridin-4-yl}aniline], which IC50 is on record?
Its IC50 is 23.1 nM.

How did the IC50 turn out when `C[C@@H]1COCCN1c1cc(-c2cccc(S(C)(=O)=O)c2F)c2ccnc(-c3ccn[nH]3)c2n1` [Example 132, 4-[2-fluoro-3-(methylsulfonyl)phenyl]-2-[(3R)-3-methylmorpholin-4-yl]-8-(1H-pyrazol-5-yl)-1,7-naphthyridine] was run?
The IC50 was 23.7 nM.

How did the IC50 turn out when `C[C@@H]1COCCN1c1cc(-c2ccnn2C2COC2)c2ccnc(-c3ccn[nH]3)c2n1` [Example 133, 2-[(3R)-3-methylmorpholin-4-yl]-4-[1-(oxetan-3-yl)-1H-pyrazol-5-yl]-8-(1H-pyrazol-5-yl)-1,7-naphthyridine] was run?
The IC50 was 27 nM.

For `C[C@@H]1COCCN1c1cc(-c2ccc(N3CCCC3)cc2F)c2ccnc(-c3ccn[nH]3)c2n1` [Example 134, 4-[2-fluoro-4-(pyrrolidin-1-yl)phenyl]-2-[(3R)-3-methylmorpholin-4-yl]-8-(1H-pyrazol-5-yl)-1,7-naphthyridine], which IC50 is on record?
The IC50 was 34.3 nM.

`COCc1noc(C)c1-c1cc(N2CCOC[C@H]2C)nc2c(-c3ccn[nH]3)nccc12` [Example 135, 4-[3-(methoxymethyl)-5-methyl-1,2-oxazol-4-yl]-2-[(3R)-3-methylmorpholin-4-yl]-8-(1H-pyrazol-5-yl)-1,7-naphthyridine] was tested. Which IC50 did it give?
Its IC50 is 32.9 nM.
